Laboratory results: US8748426B2, “Inhibitors of diacylglycerol acyl transferase” (Piramal Enterprises Limited, priority 2009, dated 2014)

How the values were obtained:
Swiss mice = test: Fat tolerance test (ftt) in mice; assay type: in vivo; conditions: 3 mg/kg, p.o.; olive oil load 10 mL/kg 30 min after treatment; AUC0-4h, vehicle group as 100%
Procedure: Swiss mice of age 4-5 weeks and body weight between 25-30 g were selected for study. After fasting for about 16 h, the animals were divided into three groups based on plasma triglyceride level with same mean and variation. Animals were administered with either vehicle [(1% tween 80 in 0.5% carboxy methylcellulose (CMC)]) or with compounds of the present invention (3 mg/kg, p.o.). Compounds of the present invention were prepared as suspension in 0.5% carboxy methylcellulose (CMC) with 1% tween 80. Olive oil (fat) load (10 mL/kg, p.o.) was given, 30 min after the treatment. Blood samples were collected at 1, 2, 3 and 4 h after the fat (olive oil) load. Plasma was separated and triglyceride level was measured using commercially available kits (diasys, Germany). Percentage reduction in area under curve (AUC0-4h) of the test compound was calculated by taking AUC0-4h of the vehicle group as 100%.

hDGAT1 = biological target: T1, hDGAT1 (Homo sapiens, UniProt O75907); test: In-vitro DGAT1 assay (14C oleoyl CoA, hDGAT1 microsomes from Sf9 cells); conditions: for inhibition at 1 µM: read-out: % Inhibition of hDGAT1; for % Inhibition of hDGAT1: at 1 μM
T1 sequence (O75907 1-488): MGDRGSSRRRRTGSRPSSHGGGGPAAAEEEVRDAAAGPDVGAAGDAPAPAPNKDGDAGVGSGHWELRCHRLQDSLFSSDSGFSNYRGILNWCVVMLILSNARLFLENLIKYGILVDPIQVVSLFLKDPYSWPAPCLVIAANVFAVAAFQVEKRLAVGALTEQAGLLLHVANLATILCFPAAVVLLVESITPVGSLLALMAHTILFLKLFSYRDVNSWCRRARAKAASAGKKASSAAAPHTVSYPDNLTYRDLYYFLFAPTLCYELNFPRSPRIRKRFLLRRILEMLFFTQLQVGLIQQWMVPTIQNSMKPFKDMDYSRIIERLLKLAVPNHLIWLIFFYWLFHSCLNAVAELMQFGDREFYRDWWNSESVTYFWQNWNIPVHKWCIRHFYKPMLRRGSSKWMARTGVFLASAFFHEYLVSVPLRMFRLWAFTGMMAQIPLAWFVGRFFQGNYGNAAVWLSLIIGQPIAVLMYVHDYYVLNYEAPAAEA

Row | Compound | inhibition at 1 µM (hDGAT1) | % Reduction (Plasma triglyceride) (Swiss mice) | % Inhibition of hDGAT1 (hDGAT1)
1 | CC(C)[C@@H](C(=O)O)N1Cc2ccc(-c3ccc(NC(=O)c4ccc(C(C)(C)C)cc4)cc3)cc2C1=O [Example 116, (S)-2-(6-(4-(4-tert-Butylbenzamido)phenyl)-1-oxoisoindolin-2-yl)-3-methyl butanoic acid] | > 50% | ++ (>50% Reduction) | –
2 | CC(C)[C@@H](C(=O)O)N1Cc2ccc(-c3ccc(NC(=O)c4ccc(-c5ccccc5)cc4)cc3)cc2C1=O [Example 120, (S)-2-(6-(4-Biphenyl-4-ylcarboxamidophenyl)-1-oxoisoindolin-2-yl)-3-methyl butanoic acid] | – | ++ (>50% Reduction) | ++ (>50% Inhibition)
3 | CC(C)[C@@H](C(=O)O)N1Cc2ccc(-c3ccc(NC(=O)c4ccc(-c5ccccc5)cc4)cn3)cc2C1=O [Example 408, (S)-2-(6-(5-Biphenyl-4-ylcarboxamidopyridin-2-yl)-1-oxoisoindolin-2-yl)-3-methylbutanoic acid] | – | ++ (>50% Reduction) | ++ (>50% Inhibition)
4 | CC(C)[C@@H](C(=O)O)N1Cc2ccc(-c3ccc(NC(=O)c4ccc(-c5cncnc5)cc4)cc3)cc2C1=O [Example 653, (S)-3-Methyl-2-(1-oxo-6-(4-(4-(pyrimidin-5-yl)benzamido)phenyl)isoindolin-2-yl)butanoic acid] | 10 to 50% | – | –
5 | CC(C)[C@@H](C(=O)O)N1Cc2ccc(-c3ccc(NC(=O)c4nc(-c5ccccc5)oc4C(F)(F)F)cn3)cc2C1=O [Example 657, (S)-3-Methyl-2-(1-oxo-6-(5-(2-phenyl-5-(trifluoromethyl)oxazole-4-carboxamido)pyridin-2-yl)isoindolin-2-yl)butanoic acid] | > 50% | – | –
6 | CC(C)[C@@H](C(=O)O)N1Cc2ccc(-c3ccc(NC(=O)Cc4ccccc4)cc3)cc2C1=O [Example 659, (S)-3-Methyl-2-(1-oxo-6-(4-(2-phenylacetamido)phenyl)isoindolin-2-yl)butanoic acid] | 10 to 50% | – | –
7 | (S)-2-(5-(4-(3-(2-Fluorophenyl)thioureido)phenyl)-1-oxoisoindolin-2-yl)-3-methylbutanoic acid [Example 257] | – | – | + (10-50% Inhibition)

Continued, in another order:

Row | inhibition at 1 µM (hDGAT1) | Compound | % Reduction (Plasma triglyceride) (Swiss mice) | % Inhibition of hDGAT1 (hDGAT1)
8 | > 50% | CCCCCc1ccc(C(=O)Nc2ccc(-c3ccc4c(c3)C(=O)N([C@H](C(=O)O)C(C)C)C4)cc2)cc1 [Example 124, (S)-3-Methyl-2-(1-oxo-6-(4-(4-pentylbenzamido)phenyl)isoindolin-2-yl)butanoic acid] | ++ (>50% Reduction) | –
9 | > 50% | CC(C)[C@@H](C(=O)O)N1Cc2ccc(-c3ccc(NC(=O)c4cccc(Oc5ccccc5)c4)cc3)cc2C1=O [Example 148, (S)-3-Methyl-2-(1-oxo-6-(4-(3-phenoxybenzamido)phenyl)isoindolin-2-yl)butanoic acid] | ++ (>50% Reduction) | –
10 | > 50% | CC(C)[C@@H](C(=O)O)N1Cc2ccc(-c3ccc(NC(=O)c4ccc(Oc5ccccc5)cc4)cc3)cc2C1=O [Example 150, (S)-3-Methyl-2-(1-oxo-6-(4-(4-phenoxybenzamido)phenyl)isoindolin-2-yl)butanoic acid] | ++ (>50% Reduction) | –
11 | > 50% | CCCc1ccc(C(=O)Nc2ccc(-c3ccc4c(c3)C(=O)N([C@H](C(=O)O)C(C)C)C4)cc2)cc1 [Example 170, (S)-3-Methyl-2-(1-oxo-6-(4-(4-propylbenzamido)phenyl)isoindolin-2-yl)butanoic acid] | ++ (>50% Reduction) | –
12 | > 50% | CCCCCc1ccc(C(=O)Nc2ccc(-c3ccc4c(c3)C(=O)N([C@H](C(=O)O)C(C)C)C4)nc2)cc1 [Example 406, (S)-3-Methyl-2-(1-oxo-6-(5-(4-pentylbenzamido)pyridin-2-yl)isoindolin-2-yl)butanoic acid] | ++ (>50% Reduction) | –
13 | > 50% | CC(C)[C@@H](C(=O)O)N1Cc2ccc(-c3ccc(NC(=O)c4ccc5ccccc5c4)cn3)cc2C1=O [Example 410, (S)-2-(6-(5-(2-Naphthamido)pyridin-2-yl)-1-oxoisoindolin-2-yl)-3-methylbutanoic acid] | ++ (>50% Reduction) | –
14 | > 50% | Cc1oc(-c2ccccc2)nc1C(=O)Nc1ccc(-c2ccc3c(c2)C(=O)N([C@H](C(=O)O)C(C)C)C3)nc1 [Example 655, (S)-3-Methyl-2-(6-(5-(5-methyl-2-phenyloxazole-4-carboxamido)pyridin-2-yl)-1-oxoisoindolin-2-yl)butanoic acid] | – | –
